Test results published in PMC6877910, “Astrocyte-Targeted Transporter-Utilizing Derivatives of Ferulic Acid Can Have Multifunctional Effects Ameliorating Inflammation and Oxidative Stress in the Brain” (Oxidative Medicine and Cellular Longevity, 2019).

Tests used:
[1] = Bioconversion in mouse brain S9 subcellular fraction; format: in vitro ADME
[2] = cited from earlier work
[3] = test system: peroxidase activity of cyclooxygenases (COX); assay: Peroxidase activity of cyclooxygenases in cell lysates (fluorometric kit); format: biochemical; conditions: 100 μM; 30 min; assay does not differentiate COX from LOX
Experimental: A coupled oxidation-reduction fluorometric assay was used to assess the inhibitory effect of compounds (100 μM) together with positive controls on the peroxidase activity of cyclooxygenases (COX) (ab204699 Cyclooxygenase Activity Assay Kit, Abcam, Cambridge, UK). The method has been done and validated according to the manufacturer's protocol. Briefly, studied compounds (100 μM) and the reaction mixture were incubated with the cell lysates at room temperature and the reaction was initiated by adding arachidonic acid/NaOH solution. The fluorescence was read in a kinetic mode after every 15 seconds for 30 minutes by the EnVision plate reader (EnVision, PerkinElmer, Inc., Waltham, MA, USA) at λex 535 nm and λem 587 nm.

[4] = mouse brain in vivo; previous study; cited from earlier work
[5] = test system: LPS-induced lipid peroxidation in primary astrocytes; assay: LPS-induced lipid peroxidation (malondialdehyde formation) in primary astrocytes; format: cell-based, mouse; conditions: 50 μM compound with 0.1 μg/mL LPS, 24 h
Experimental: Primary astrocytes were seeded at the density of 2 × 10^5 cells/well onto collagen-coated 6-well plates. The cells were used for the experiments 2 days after seeding, and first, they were treated with 0.1 μg/mL lipopolysaccharide (LPS) in prewarmed HBSS buffer (250 μL) at 37°C for 24 h. The control cells were treated with prewarmed HBSS buffer only. The ability of compound to inhibit the oxidative stress was evaluated by adding FA (50 μM) or its derivatives 1-3 in prewarmed HBSS buffer (250 μL) together with LPS and incubating the cells at 37°C for 24 h. Tocopherol (vitamin E) was used as a positive control. […] The mixtures were then centrifuged at 10 000 × g for 10 min, and 50 μL of the supernatant was analyzed on a 96-well plate, each experiment as three technical replicates from three biological replicates. The fluorescence was read by the EnVision plate reader (EnVision, PerkinElmer, Inc., Waltham, MA, USA) at λex 532 nm and λem 553 nm. The amount of produced malondialdehyde (MDA) in each experiment was quantified from the standard curve; various amounts (1-800 μM) of MDA and thiobarbituric acid in water were incubated in a thermoshaker at 95°C for 1 h and analyzed simultaneously as duplicates with each studied batch. […] The results were analyzed as μmol of formed MDA per mg protein.

[6] = test system: NF-κB; assay: Total amount of NF-κB p65 (ELISA) in cells; format: cell-based, mouse; conditions: 100 μM; 24-96 h incubation
Experimental: Enzyme-Linked Immunosorbent Assay (ELISA) kits were used (mTOR SimpleStep ELISA Kit and NFκB p65 Total SimpeStep ELISA Kit, Abcam, Cambridge, UK) to quantify mammalian (or mechanistic) target of rapamycin (mTOR) and transcription factor NF-κB amounts, respectively. […] The control wells were treated with the solvent only (0.5% DMSO). Cells were solubilized using the provided extraction buffer with the kit, incubated on ice for 20 minutes and centrifuged at 18 000 × g for 20 min at 4°C. The supernatants were stored at -80°C till the day of the analysis. Standards and samples were then analyzed following the manufacturer's protocol (ELISA sandwich method) and by reading the absorbance with the EnVision plate reader (EnVision, PerkinElmer, Inc., Waltham, MA, USA) at 450 nm. The results were analyzed as pmol of formed mTOR or NF-κB per mL.

[7] = test system: LAT1; conditions: human breast adenocarcinoma cells (MCF-7); previously determined values; cited from earlier work
[8] = 5 h incubation in vitro; previous study; cited from earlier work

SMILES: COc1cc(C=CC(=O)Oc2cccc(CC(N)C(=O)O)c2)ccc1O (stereo not shown) [FA-derivative 3]
- Bioconversion in the presence of donepezil [1]: no bioconversion at all was observed
- half-life [1]: ~3.58 h
- Bioconversion in human plasma ([2]; in vitro human data): rather insignificant
- Human hepatic intrinsic clearance, times slower than in mouse ([2]; in vitro human data): 10 times
- Stability in human plasma and liver S9 subcellular fraction, times more stable (than in mouse) ([2]; previous study): 10 times

SMILES: COc1cc(/C=C/C(=O)O)ccc1O [FA, trans-4-hydroxy-3-methoxycinnamic acid, reference compound]
- Inhibition of peroxidase activity of COX enzymes [3]: inhibited the cellular peroxidase activity of COX enzymes

SMILES: COc1cc(C=CC(=O)Nc2cccc(CC(N)C(=O)O)c2)ccc1O (stereo not shown) [FA-derivative 2]
- FA released in the brain [4]: less than 5%
- MDA levels lower than in the control incubation [5]: approximately 12%
- Effect on total NF-κB levels [6]: did not exert any effects
- IC50 [7]: 1.1 µM

SMILES: COc1cc(C=CC(=O)NCc2cccc(CC(N)C(=O)O)c2)ccc1O (stereo not shown) [FA-derivative 1]
- FA released / stability in mouse brain S9 subcellular fraction [8]: remained intact
- FA released in the brain [4]: did not release any FA
- IC50 [7]: 14.2 µM
